Test results as given in ChEMBL document CHEMBL3046559, “Sterile oat (Avena sterilis L.) cross-resistance profile to ACCase-inhibiting herbicides in Greece” (2012).

Experiments:
Assay type in all cases: functional
[1] = test system: Avena sterilis; test: Herbicidal activity against Avena sterilis accession P15 assessed as induction of weed mortality
[2] = test system: Avena sterilis; test: Herbicidal activity against Avena sterilis accession P20 assessed as weed survival at 4 times field recommended herbicide dose
[3] = test system: Avena sterilis; test: Herbicidal activity against Avena sterilis accession P18 assessed as weed survival at 8 times field recommended herbicide dose
[4] = test system: Avena sterilis; test: Herbicidal activity against Avena sterilis accession P14 assessed as weed survival at 1 times field recommended herbicide dose
[5] = test system: Avena sterilis; test: Herbicidal activity against Avena sterilis accession P10S assessed as weed survival at 1/32 times field recommended herbicide dose
[6] = test system: Avena sterilis; test: Herbicidal activity against Avena sterilis accession P11 assessed as weed survival at 1 times field recommended herbicide dose
[7] = test system: Avena sterilis; test: Herbicidal activity against Avena sterilis accession P18 assessed as weed survival at 1 times field recommended herbicide dose
[8] = test system: Avena sterilis; test: Herbicidal activity against Avena sterilis accession P05 assessed as weed survival at 4 times field recommended herbicide dose
[9] = test system: Avena sterilis; test: Herbicidal activity against Avena sterilis accession P14 assessed as weed survival at 32 times field recommended herbicide dose
[10] = test system: Avena sterilis; test: Herbicidal activity against Avena sterilis accession P13S assessed as weed survival at 1 times field recommended herbicide dose
[11] = test system: Avena sterilis; test: Herbicidal activity against Avena sterilis accession P09 assessed as weed survival at 1 times field recommended herbicide dose
[12] = test system: Avena sterilis; test: Herbicidal activity against Avena sterilis accession P11 assessed as weed survival at 16 times field recommended herbicide dose
[13] = test system: Avena sterilis; test: Herbicidal activity against Avena sterilis accession P22 assessed as weed survival at 4 times field recommended herbicide dose
[14] = test system: Avena sterilis; test: Herbicidal activity against Avena sterilis accession P06S assessed as weed survival at 1/16 times field recommended herbicide dose
[15] = test system: Avena sterilis; test: Herbicidal activity against Avena sterilis accession P15 assessed as weed survival at 1 times field recommended herbicide dose
[16] = test system: Avena sterilis; test: Herbicidal activity against Avena sterilis accession P10S assessed as weed survival at 1 times field recommended herbicide dose
[17] = test system: Avena sterilis; test: Herbicidal activity against Avena sterilis accession P22 assessed as weed survival at 1 times field recommended herbicide dose
[18] = test system: Avena sterilis; test: Herbicidal activity against Avena sterilis accession P07 assessed as weed survival at 4 times field recommended herbicide dose
[19] = test system: Avena sterilis; test: Herbicidal activity against Avena sterilis accession P03 assessed as induction of weed mortality
[20] = test system: Avena sterilis; test: Herbicidal activity against Avena sterilis accession P15 assessed as weed survival at 4 times field recommended herbicide dose
[21] = test system: Avena sterilis; test: Herbicidal activity against Avena sterilis accession P09 assessed as induction of weed mortality
[22] = test system: Avena sterilis; test: Herbicidal activity against Avena sterilis accession P10S assessed as weed survival at 1/4 times field recommended herbicide dose
[23] = test system: Avena sterilis; test: Herbicidal activity against Avena sterilis accession P12 assessed as weed survival at 4 times field recommended herbicide dose
[24] = test system: Avena sterilis; test: Herbicidal activity against Avena sterilis accession P17 assessed as weed survival at 4 times field recommended herbicide dose
[25] = test system: Avena sterilis; test: Herbicidal activity against Avena sterilis accession P05 assessed as induction of weed mortality
[26] = test system: Avena sterilis; test: Herbicidal activity against Avena sterilis accession P11 assessed as weed survival at 32 times field recommended herbicide dose
[27] = test system: Avena sterilis; test: Herbicidal activity against Avena sterilis accession P09 assessed as weed survival at 32 times field recommended herbicide dose
[28] = test system: Avena sterilis; test: Herbicidal activity against Avena sterilis accession P13S assessed as weed survival at 1/32 times field recommended herbicide dose
[29] = test system: Avena sterilis; test: Herbicidal activity against Avena sterilis accession P08 assessed as weed survival at 8 times field recommended herbicide dose
[30] = test system: Avena sterilis; test: Herbicidal activity against Avena sterilis accession P01 assessed as induction of weed mortality
[31] = test system: Avena sterilis; test: Herbicidal activity against Avena sterilis accession P18 assessed as weed survival at 4 times field recommended herbicide dose
[32] = test system: Avena sterilis; test: Herbicidal activity against Avena sterilis accession P15 assessed as weed survival at 32 times field recommended herbicide dose
[33] = test system: Avena sterilis; test: Herbicidal activity against Avena sterilis accession P02 assessed as weed survival at 4 times field recommended herbicide dose
[34] = test system: Avena sterilis; test: Herbicidal activity against Avena sterilis accession P12 assessed as weed survival at 1 times field recommended herbicide dose
[35] = test system: Avena sterilis; test: Herbicidal activity against Avena sterilis accession P10S assessed as induction of weed mortality
[36] = test system: Avena sterilis; test: Herbicidal activity against Avena sterilis accession P09 assessed as weed survival at 8 times field recommended herbicide dose
[37] = test system: Avena sterilis; test: Herbicidal activity against Avena sterilis accession P16 assessed as weed survival at 1 times field recommended herbicide dose
[38] = test system: Avena sterilis; test: Herbicidal activity against Avena sterilis accession P19S assessed as weed survival at 1/32 times field recommended herbicide dose
[39] = test system: Avena sterilis; test: Herbicidal activity against Avena sterilis accession P08 assessed as induction of weed mortality
[40] = test system: Avena sterilis; test: Herbicidal activity against Avena sterilis accession P18 assessed as induction of weed mortality
[41] = test system: Avena sterilis; test: Herbicidal activity against Avena sterilis accession P02 assessed as induction of weed mortality
[42] = test system: Avena sterilis; test: Herbicidal activity against Avena sterilis accession P17 assessed as weed survival at 8 times field recommended herbicide dose
[43] = test system: Avena sterilis; test: Herbicidal activity against Avena sterilis accession P05 assessed as weed survival at 1 times field recommended herbicide dose
[44] = test system: Avena sterilis; test: Herbicidal activity against Avena sterilis accession P21S assessed as weed survival at 1 times field recommended herbicide dose
[45] = test system: Avena sterilis; test: Herbicidal activity against Avena sterilis accession P13S assessed as weed survival at 1/8 times field recommended herbicide dose
[46] = test system: Avena sterilis; test: Herbicidal activity against Avena sterilis accession P01 assessed as weed survival at 32 times field recommended herbicide dose
[47] = test system: Avena sterilis; test: Herbicidal activity against Avena sterilis accession P02 assessed as weed survival at 16 times field recommended herbicide dose
[48] = test system: Avena sterilis; test: Herbicidal activity against Avena sterilis accession P17 assessed as induction of weed mortality
[49] = test system: Avena sterilis; test: Herbicidal activity against Avena sterilis accession P04 assessed as weed survival at 4 times field recommended herbicide dose
[50] = test system: Avena sterilis; test: Herbicidal activity against Avena sterilis accession P12 assessed as induction of weed mortality
[51] = test system: Avena sterilis; test: Herbicidal activity against Avena sterilis accession P07 assessed as weed survival at 1 times field recommended herbicide dose
[52] = test system: Avena sterilis; test: Herbicidal activity against Avena sterilis accession P11 assessed as weed survival at 8 times field recommended herbicide dose
[53] = test system: Avena sterilis; test: Herbicidal activity against Avena sterilis accession P06S assessed as weed survival at 1/8 times field recommended herbicide dose
[54] = test system: Avena sterilis; test: Herbicidal activity against Avena sterilis accession P05 assessed as weed survival at 8 times field recommended herbicide dose
[55] = test system: Avena sterilis; test: Herbicidal activity against Avena sterilis accession P08 assessed as weed survival at 32 times field recommended herbicide dose
[56] = test system: Avena sterilis; test: Herbicidal activity against Avena sterilis accession P03 assessed as weed survival at 8 times field recommended herbicide dose
[57] = test system: Avena sterilis; test: Herbicidal activity against Avena sterilis accession P12 assessed as weed survival at 8 times field recommended herbicide dose
[58] = test system: Avena sterilis; test: Herbicidal activity against Avena sterilis accession P21S assessed as weed survival at 1/8 times field recommended herbicide dose

CCO/N=C(\CC)C1=C(O)CC(c2c(C)cc(C)cc2C)CC1=O (stereo not drawn) [TRALKOXYDIM]
GR50 [1]: 735 gAi/ha
Survival [2]: 80%
Survival [3]: 0%
Survival [4]: 0%
Survival [5]: 97%
Survival [6]: 17%
Survival [7]: 20%
Survival [8]: 40%
Survival [9]: 0%
Survival [10]: 0%
Survival [11]: 60%
Survival [12]: 0%
Survival [13]: 40%
Survival [14]: 60%
Survival [15]: 70%
Survival [16]: 0%
Survival [17]: 57%
Survival [18]: 20%
GR50 [19]: 1561 gAi/ha
Survival [20]: 20%
GR50 [21]: 532 gAi/ha
Survival [22]: 20%
Survival [23]: 0%
Survival [24]: 20%
GR50 [25]: <400 gAi/ha
Survival [26]: 0%
Survival [27]: 0%
Survival [28]: 93%
Survival [29]: 17%
GR50 [30]: 766 gAi/ha
Survival [31]: 20%
Survival [32]: 0%
Survival [33]: 40%
Survival [34]: 13%
GR50 [35]: 29 gAi/ha
Survival [36]: 0%
Survival [37]: 77%
Survival [38]: 100%
GR50 [39]: 781 gAi/ha
GR50 [40]: <400 gAi/ha
GR50 [41]: 1073 gAi/ha
Survival [42]: 7%
Survival [43]: 40%
Survival [44]: 20%
Survival [45]: 23%
Survival [46]: 0%
Survival [47]: 0%
GR50 [48]: 412 gAi/ha
Survival [49]: 77%
GR50 [50]: <400 gAi/ha
Survival [51]: 23%
Survival [52]: 0%
Survival [53]: 30%
Survival [54]: 10%
Survival [55]: 0%
Survival [56]: 20%
Survival [57]: 0%
Survival [58]: 77%
